Tested on: transcription factor activator protein-1 (AP-1)
Test: Electrophoretic mobility shift assay of DNA binding of AP-1 in nuclear protein from treated cells
Format: cell-based, rat
Details: pretreated 2 hours, then 10% FBS 6 hours; 50 µM DHEA; 2 and 10 µM 16α-BrEA (Figures 8A, 8B)
Experimental: To study the effect of DHEA and 16α-BrEA on activation of AP-1, a secondary response important in cellular growth and proliferation (Angel and Karin, (1991), supra) confluent monolayers of airway smooth muscle in 75-cm^2 Petri dishes were growth arrested for 24 hours in 0.5% FBS and DMEM and pretreated 2 hours with DHEA, 16α-BrEA or DMSO vehicle. Cells were then stimulated with 10% FBS in DMEM for 6 hours, nuclear protein was harvested, and electrophoretic mobility shift assays were performed as described below to determine if treatment with DHEA and 16α-BrEA impaired DNA binding of AP-1. Measurement of Cytotoxicity and Apoptosis. To assess for cytotoxicity, DHEA or 16α-BrEA were added to wells of airway smooth muscle cells previously grown to confluence in DMEM and 10% FBS. After 24 hours, media was microfuged 5 minutes and supernatant was assayed for lactate dehydrogenase activity using a commercially available assay (DG-1340K from Sigma). Cells were washed twice in DPBS and exposed to trypan blue dye (0.04% in Hanks' balanced salt solution). Cell counts were performed in five random fields using a 0.01-cm^2 ocular grid to quantitate the average number of damaged or dead cells that accumulated dye.
RNA (100 ng) was reverse-transcribed using M-MLV reverse transcriptase. […] The resulting polaroid negative was quantitated using a Bio Image Analyzer (Bio Image, Ann Arbor, MI). […]

Row | Compound | DNA binding of AP-1
1 | C[C@]12CC[C@H](O)CC1=CC[C@@H]1[C@@H]2CC[C@]2(C)C(=O)CC[C@@H]12 [DHEA, dehydroepiandrosterone] | inhibit DNA binding of AP-1
2 | C[C@]12CC[C@H](O)C[C@@H]1CC[C@@H]1[C@@H]2CC[C@]2(C)C(=O)[C@H](Br)C[C@@H]12 [16α-BrEA, 16α-bromoepiandrosterone] | inhibit DNA binding of AP-1
